Drawing on PubChem BioAssay (NCI), this text covers GI50 and TGI for ten compounds.

SMILES strings stand for the structures. “And” between values parts separate entries of the source, which are not always exact repeats. Equal entries are not always repeated.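 Cultured in 96-well plates, cells were exposed to test compound for 48 hours across five concentrations. Abbreviation: GI50, concentration required for 50% inhibition of growth. Definition used: TGI = concentration required for complete inhibition of growth.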

Some test systems named below: K-562 leukemia; SK-MEL-2 melanoma; SR leukemia; CAKI-1 renal; SF-539 CNS; EKVX NSCLC; MCF7 breast; CCRF-CEM leukemia; IGROV1 ovarian; NCI-H460 lung.
Holding throughout (test): NCI-60 cell line screen, 48 h

For the compound `Cc1c2ncccc2nc2[nH]c3ccc(OCCN(C)C)cc3c12`, the GI50 in the assay with K-562 leukemia was 0.802 µM; in the assay on SK-MEL-2 melanoma, 3.03 µM; in the assay on SR leukemia, 0.734 µM; in the assay on CAKI-1 renal, 3.61 µM; in the assay on SF-539 CNS it was 2.58 µM; with EKVX NSCLC, 2.9 µM. In addition, the GI50 is 0.305 µM in the assay on MCF7 breast, 2.1 µM in the assay on CCRF-CEM leukemia, 2.13 µM in the assay with IGROV1 ovarian and 1.93 µM with NCI-H460 lung. For the same compound, the TGI in the assay on K-562 leukemia amounted to 14.6 µM; in the assay on SK-MEL-2 melanoma, 15.1 µM; in the assay on SR leukemia, 7.95 µM; with CAKI-1 renal it was 21.3 µM; with SF-539 CNS, 13.9 µM; in the assay on EKVX NSCLC it was 21.2 µM. For the same compound, the TGI in the assay with MCF7 breast amounted to 6.04 µM; in the assay with CCRF-CEM leukemia it was 20.9 µM; with IGROV1 ovarian it was 16.5 µM; with NCI-H460 lung it was 11 µM.

On to `COc1ccc2[nH]c(-c3cccc(N(C)C)c3)cc(=O)c2c1`, for which the GI50 was 0.321 µM with K-562 leukemia; 0.786 µM in the assay on SK-MEL-2 melanoma; 0.418 µM in the assay on CAKI-1 renal; 0.391 µM with SF-539 CNS; 1.17 µM with EKVX NSCLC; 0.564 µM with NCI-H460 lung. Further, the TGI is 17.3 µM in the assay on K-562 leukemia; 1.73 µM in the assay on SR leukemia; more than 100 µM in the assay on CAKI-1 renal; 30.7 µM in the assay with EKVX NSCLC; more than 100 µM with MCF7 breast; 0.907 µM in the assay with CCRF-CEM leukemia. Further, the TGI in the assay with IGROV1 ovarian and in the assay with NCI-H460 lung was more than 100 µM in each case.

As to `COc1ccc(/C(Cl)=C(\C=O)c2ccc(OC)c(OC)c2)cc1OC`, the TGI in the assay with K-562 leukemia, with SK-MEL-2 melanoma, in the assay on SR leukemia, in the assay with CAKI-1 renal, in the assay on SF-539 CNS and with EKVX NSCLC was more than 100 µM throughout. For the same compound, the TGI in the assay with MCF7 breast, in the assay on CCRF-CEM leukemia, with IGROV1 ovarian and in the assay with NCI-H460 lung was more than 100 µM each time.

As to `CC(F)(F)c1cc(F)ccc1-c1sc2cc(O)ccc2c1Oc1ccc(/C=C/C(=O)O)cc1`, the GI50 with K-562 leukemia was 6.7 µM; with SK-MEL-2 melanoma, 4.43 µM; with SR leukemia, 3.66 µM; in the assay on CAKI-1 renal, 6.26 µM; in the assay on SF-539 CNS, 5.95 µM; in the assay on EKVX NSCLC it was 10.6 µM. The figures for the GI50 in the assay with CCRF-CEM leukemia, with IGROV1 ovarian and with NCI-H460 lung were 6.68 µM, 11.6 µM and 8.18 µM, respectively. For the same compound, the TGI in the assay on K-562 leukemia is 79.2 µM; in the assay on SK-MEL-2 melanoma it was 20.8 µM; in the assay with SR leukemia, more than 100 µM; with CAKI-1 renal, 20.2 µM; in the assay on SF-539 CNS, 21 µM; in the assay on EKVX NSCLC, 39.6 µM. Further, the TGI was found to be 15.2 µM in the assay with MCF7 breast, 94.4 µM with CCRF-CEM leukemia, 29 µM in the assay on IGROV1 ovarian and 23.5 µM with NCI-H460 lung.

Regarding `CCCCCC(=O)OCC(=O)O[C@@H]1C[C@]2(C(C)C)O[C@@]1(C)[C@@H]1CC[C@@H](C)[C@H]1[C@@H]2OC(=O)/C=C/c1ccccc1`, the GI50 with K-562 leukemia is more than 41.3 µM; in the assay on SK-MEL-2 melanoma, more than 58.2 µM; in the assay on SR leukemia it was 19.7 µM; with CAKI-1 renal, 0.0329 µM; in the assay with SF-539 CNS it was more than 51.3 µM; with EKVX NSCLC it was more than 54.5 µM. Moreover, the GI50 was more than 32.9 µM with MCF7 breast, more than 37.6 µM in the assay on CCRF-CEM leukemia, more than 33.4 µM in the assay with IGROV1 ovarian and more than 60.6 µM in the assay on NCI-H460 lung. Besides, the TGI is more than 100 µM in the assay with K-562 leukemia; more than 81 µM in the assay with SK-MEL-2 melanoma; more than 100 µM in the assay with SR leukemia; 0.221 µM in the assay with CAKI-1 renal; more than 76.2 µM in the assay with SF-539 CNS; more than 100 µM with EKVX NSCLC. Also, the TGI with MCF7 breast is more than 100 µM; in the assay on CCRF-CEM leukemia it was more than 100 µM; in the assay with IGROV1 ovarian, more than 55.8 µM; in the assay with NCI-H460 lung it was more than 94.8 µM.

On to `O=C1NC(=O)C2(CCC(O)C2)c2cc[n+]([O-])cc21` (configuration not stated), for which the TGI with K-562 leukemia, with SK-MEL-2 melanoma, in the assay with SR leukemia, in the assay with CAKI-1 renal, in the assay with SF-539 CNS and in the assay on EKVX NSCLC was more than 100 µM each time. Moreover, the TGI with MCF7 breast, in the assay with CCRF-CEM leukemia, in the assay on IGROV1 ovarian and in the assay on NCI-H460 lung was more than 100 µM each time.

On to `CC1CCC2C(C)C3C(CC4C5CC=C6CC(OC7OC(CO)C(O)C(OC8OC(CO)C(O)C(O)C8O)C7OC7OC(C)C(O)C(O)C7O)CCC6(C)C5CCC43C)N2C1` (configuration not stated), for which the GI50 in the assay with K-562 leukemia, in the assay on SK-MEL-2 melanoma, in the assay on SR leukemia, in the assay on CAKI-1 renal, in the assay on EKVX NSCLC and in the assay on MCF7 breast was more than 2.5 µg/mL each time. Also, the GI50 with CCRF-CEM leukemia, in the assay with IGROV1 ovarian and in the assay on NCI-H460 lung was more than 2.5 µg/mL each time. For the same compound, the TGI in the assay on K-562 leukemia was 54.4 µM and > 2.5 µg/mL; in the assay with SK-MEL-2 melanoma, 34.8 µM and > 2.5 µg/mL; with SR leukemia, 29 µM and > 2.5 µg/mL; with CAKI-1 renal, 25.1 µM and > 2.5 µg/mL; in the assay on SF-539 CNS it was 23.8 µM; in the assay on EKVX NSCLC it was 21.9 µM and > 2.5 µg/mL. Besides, the TGI is 29.1 µM and > 2.5 µg/mL in the assay with MCF7 breast; 28.2 µM and > 2.5 µg/mL with CCRF-CEM leukemia; 26.2 µM and > 2.5 µg/mL in the assay on IGROV1 ovarian; 37.6 µM and > 2.5 µg/mL in the assay with NCI-H460 lung.

Regarding `O=[N+]([O-])c1cc(Cl)cc2c1nc(NCCO)c1ccccc12`, the TGI in the assay on K-562 leukemia was more than 94 µM; in the assay on SK-MEL-2 melanoma, 43.8 µM; in the assay with SR leukemia, 7.09 µM; in the assay on CAKI-1 renal, more than 100 µM; in the assay with SF-539 CNS it was more than 100 µM; in the assay with EKVX NSCLC, more than 100 µM. The TGI in the assay on MCF7 breast was more than 72.4 µM; in the assay on CCRF-CEM leukemia it was more than 100 µM; in the assay with IGROV1 ovarian it was more than 100 µM; in the assay on NCI-H460 lung it was 15.7 µM.

As to `CS(=O)(=O)OCCN(CCOS(C)(=O)=O)c1ccc(C=Nc2ccc3oc(=O)ccc3c2)cc1`, the TGI is more than 100 µM in the assay on K-562 leukemia; 37.7 µM with SK-MEL-2 melanoma; 40.1 µM in the assay with SR leukemia; 9.11 µM in the assay on CAKI-1 renal; 35.3 µM in the assay with SF-539 CNS; 36.5 µM with EKVX NSCLC. Besides, the TGI in the assay with MCF7 breast was more than 93.5 µM; in the assay on CCRF-CEM leukemia it was 31.8 µM; in the assay on IGROV1 ovarian it was 53.1 µM; in the assay on NCI-H460 lung it was 5.38 µM.

`CC(=O)NCCCCCCNC(C)=O`: the TGI in the assay on K-562 leukemia, in the assay with SK-MEL-2 melanoma, in the assay with SR leukemia, in the assay on CAKI-1 renal, in the assay with SF-539 CNS and with EKVX NSCLC was more than 10000 µM throughout. Also, the TGI is more than 9380 µM in the assay on MCF7 breast, more than 10000 µM in the assay with CCRF-CEM leukemia, more than 10000 µM in the assay on IGROV1 ovarian and more than 7500 µM in the assay with NCI-H460 lung.
